Read-outs that look alike come from different tables or passages of the source.
Columns and labels:
Assay type in all cases: biochemical
[1] = biological target: T1, wild-type SUR1/Kir6.2 channels (Rattus norvegicus, UniProt P70673+Q09429); experiment: Inside-out patch recording of recombinant wild-type channels expressed in COS7 cells
T1 construct: A full-length Kir cDNA and a full-length SUR cDNA were subcloned into the mammalian expression vector; expressed in transfected cells; host or cells: COS7 cells (KATP channel-deficient), pcDNA3.1(-) vectors, GFP cDNA co-transfected as a separate reporter
T1 sequence (Q09429 whole entry): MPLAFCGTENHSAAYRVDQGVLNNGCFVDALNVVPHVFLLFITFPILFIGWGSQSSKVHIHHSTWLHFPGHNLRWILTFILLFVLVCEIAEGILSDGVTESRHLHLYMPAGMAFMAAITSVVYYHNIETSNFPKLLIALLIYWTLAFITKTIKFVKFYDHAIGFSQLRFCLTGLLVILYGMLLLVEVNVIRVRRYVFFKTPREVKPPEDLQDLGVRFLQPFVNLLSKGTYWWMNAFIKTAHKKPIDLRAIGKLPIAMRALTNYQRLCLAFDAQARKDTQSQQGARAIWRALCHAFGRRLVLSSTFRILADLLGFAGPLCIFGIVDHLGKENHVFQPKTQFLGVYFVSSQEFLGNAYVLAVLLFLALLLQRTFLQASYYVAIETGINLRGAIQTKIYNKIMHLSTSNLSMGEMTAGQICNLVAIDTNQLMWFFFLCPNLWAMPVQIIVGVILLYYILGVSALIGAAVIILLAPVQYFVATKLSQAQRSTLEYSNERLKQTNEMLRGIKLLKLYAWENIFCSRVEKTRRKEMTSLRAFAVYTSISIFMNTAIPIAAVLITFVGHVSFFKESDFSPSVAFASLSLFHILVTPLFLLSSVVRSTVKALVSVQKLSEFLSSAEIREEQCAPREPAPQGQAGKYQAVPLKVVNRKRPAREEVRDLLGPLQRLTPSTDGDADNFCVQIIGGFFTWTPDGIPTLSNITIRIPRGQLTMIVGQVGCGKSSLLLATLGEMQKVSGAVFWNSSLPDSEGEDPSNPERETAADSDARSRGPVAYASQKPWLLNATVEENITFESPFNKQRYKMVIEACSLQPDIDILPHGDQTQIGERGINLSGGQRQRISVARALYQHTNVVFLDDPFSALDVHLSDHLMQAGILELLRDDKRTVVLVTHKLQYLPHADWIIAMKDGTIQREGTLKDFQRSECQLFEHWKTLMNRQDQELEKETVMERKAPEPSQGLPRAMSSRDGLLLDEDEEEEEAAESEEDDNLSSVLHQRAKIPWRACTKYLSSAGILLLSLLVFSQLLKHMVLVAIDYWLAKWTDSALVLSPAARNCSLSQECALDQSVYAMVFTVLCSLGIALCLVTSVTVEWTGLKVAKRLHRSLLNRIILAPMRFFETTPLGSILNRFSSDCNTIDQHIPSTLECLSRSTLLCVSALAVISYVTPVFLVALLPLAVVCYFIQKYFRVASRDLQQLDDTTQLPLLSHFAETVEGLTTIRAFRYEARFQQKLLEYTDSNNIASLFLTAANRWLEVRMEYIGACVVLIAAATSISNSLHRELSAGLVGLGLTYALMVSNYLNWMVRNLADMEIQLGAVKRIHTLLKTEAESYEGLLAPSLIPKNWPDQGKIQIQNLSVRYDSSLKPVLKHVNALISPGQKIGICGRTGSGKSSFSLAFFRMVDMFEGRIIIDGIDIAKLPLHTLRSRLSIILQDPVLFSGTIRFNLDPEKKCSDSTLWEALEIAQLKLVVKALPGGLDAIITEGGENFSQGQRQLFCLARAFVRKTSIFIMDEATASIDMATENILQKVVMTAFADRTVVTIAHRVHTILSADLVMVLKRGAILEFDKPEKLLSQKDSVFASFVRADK
T1 sequence (P70673 whole entry): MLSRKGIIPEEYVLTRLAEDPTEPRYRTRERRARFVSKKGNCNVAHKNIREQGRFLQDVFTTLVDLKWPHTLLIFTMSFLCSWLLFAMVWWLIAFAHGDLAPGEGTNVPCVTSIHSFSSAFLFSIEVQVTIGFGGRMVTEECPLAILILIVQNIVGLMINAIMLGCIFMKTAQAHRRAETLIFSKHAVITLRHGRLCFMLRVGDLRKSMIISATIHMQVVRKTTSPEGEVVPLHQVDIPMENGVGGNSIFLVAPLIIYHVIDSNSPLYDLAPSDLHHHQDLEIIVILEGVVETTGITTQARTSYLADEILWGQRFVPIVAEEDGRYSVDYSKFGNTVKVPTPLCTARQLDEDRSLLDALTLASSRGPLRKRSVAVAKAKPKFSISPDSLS
Protocol: (§1) KATP channel-deficient COS7 cells were plated at a density of 3 × 10^5/dish (35 mm in diameter) and cultured in Dulbecco's modified Eagle's medium supplemented with 10% fetal calf serum. Rat Kir6.2 (GenBank X97041) and rat SUR1 (GenBank X97279) cDNAs were used for expression study. A truncated form of Kir6.2 lacking the last 36 amino acids at the C-terminus was obtained by polymerase chain reaction amplification. Polymerase chain reaction products were cloned into the pCR3.1 vector by using the TA cloning system (Invitrogen Corp., Carlsbad, CA, USA) and then cloned into the pcDNA3.1 (-) vector (Invitrogen Corp.) for mammalian expression. Point mutation of cysteine at position 717 (C717), C806, C1378, C1446, and C1491 within SUR1 to serine (C717S, C806S, C1378S, C1446S, and C1491S) was performed by using the Site-Directed Mutagenesis system (Invitrogen Corp.). All cDNA products were sequenced by using the BigDye terminator cycle sequencing kit and an ABI PRISM 377 DNA sequencer (Applied Biosystems, Foster City, CA) to confirm the sequence. A full-length Kir cDNA and a full-length SUR cDNA were subcloned into the mammalian expression vector pcDNA3.1 (-). For electrophysiological recordings, either wild-type or mutated pcDNA3.1 (-) Kir6.2 alone (1 μg), or pcDNA3.1 (-) Kir6.2 (1 μg) plus pcDNA3.1 (-) SUR1 (3 μg) were transfected into COS7 cells with green fluorescent protein cDNA as a reporter gene by using lipofectamine and Opti-MEN 1 reagents (Life Technologies Inc., Rockville, MD) according to the manufacturer's instructions. After transfection, cells were cultured at 37°C with 95% air and 5% CO2 for 48–72 h before being subjected to electrophysiological recordings.
(§2) We recorded current passing through single channels in inside-out or cell-attached patch configurations. In cell-attached patches, both bath and pipette (extracellular) solutions were composed of the following: 140 mM KCl, 10 mM HEPES, 5.5 mM dextrose, and 1 mM EGTA. In inside-out patches, the bath (intracellular) solution contained 140 mM KCl, 1.2 mM MgCl2, 10 mM HEPES, 1.5 mM EGTA and 5.5 mM dextrose. The pipette (extracellular) solution was of the same composition as that used in cell-attached recordings. The pH of all solutions was adjusted to 7.4 with KOH. Osmolality was adjusted approximately to 300 mOsm/l by adding sucrose if necessary. We pulled patch micropipettes from borosilicate glass capillaries using a Flaming/Brown micropipette puller, model P-97 (Sutter, San Rafael, CA) and flame polished them with a microforge polisher (Narishige, Tokyo, Japan) prior to use. Their resistance ranged between 3 and 6 MΩ when filled with the internal solution, and placed into the recording solutions.
(§3) We recorded single channel currents at room temperature (20–25°C) using an Axon CNS Multiclamp 700B amplifier, digitized them using an analog-to-digital converter (Axon CNS DigiData 1440A; Axon Instruments, Foster, CA), and stored them into a PC. Sampling frequency of single-channel data was 5 KHz with a low-pass filter (1 KHz). We used pClamp version 10.2 software (Axon Instruments) for data acquisition and analysis. […] Channel open probability (Po) was determined from the ratios of the area under the peaks in the amplitude histograms fitted by a Gaussian distribution. We calculated channel activity as NPo (where N is the number of observed channels in the patch) from data samples of either 30 s (in inside-out recordings), or 60 s (in cell-attached recordings), in the steady state. […]

[2] = biological target: T2, KATP channels in large DRG neurons (Rattus norvegicus, UniProt P70673+Q09429); experiment: Excised inside-out (cell-free) patch-clamp recording of KATP channel activity
T2 construct: native KATP channels in large DRG neurons; endogenous in cells; host or cells: acutely dissociated large-diameter neurons from rat L4/L5 dorsal root ganglia (sham-operated or spinal nerve ligated animals)
T2 sequence (Q09429 whole entry): as the sequence (Q09429 whole entry) above
T2 sequence (P70673 whole entry): as the sequence (P70673 whole entry) above
Excerpt: We harvested control (L4 and L5) or axotomized (L5) ganglia, from control (SS) or hyperalgesic rats (SNL) respectively, between the 17th and 28th postoperative days. We sacrificed animals by decapitation under deep isoflurane anesthesia, excised ganglia through a lumbar incision, and at the same time confirmed accuracy of initial surgery.
For patch-clamp recordings, we placed excised DRG into separate 35 mm Petri dishes containing cold, oxygenated, Hanks Balanced Salt Solution (Gibko, Invitrogen, Grand Islan, NY), and minced them with iris scissors. We dissociated ganglia enzymatically in a solution containing 0.25 ml 0.05% w:v liberase blendzyme 2 (Roche Diagnostics Corp., Indianapolis, IN) and 0.25 ml DMEM/F12 with glutaMAX (Dulbecco's modified Eagle's medium F12; Gibco, Invitrogen Corp., Carlsbad, CA) in an incubator at 37°C for 30 min. We then removed the supernatant after centrifugation and re-incubated cells at 37°C for another 30 min in 0.2 ml 0.0625% trypsin (Sigma, St. Louis, MO) and 0.0125% deoxyribonuclease 1 (150,000 U, Sigma, St. Louis, MO) in 0.25 ml DMEM. We then isolated cells by centrifugation (600 rpm for 5 min) after adding 0.25 ml trypsin inhibitor 0.1% w:v (Sigma St. Louis, MO), and re-suspended them in a culture medium consisting of 0.5 mM glutamine, 0.02 mg/ml gentamicin (Gibco, Invitrogen Corp., Carlsbad, CA), 100 ng/ml nerve growth factor 7S (Alomone Labs, Jerusalem, Israel), 2% (vol/vol) B-27 supplement (Gibco, Invitrogen Corp., Carlsbad, CA), and 98% (vol/vol) neural basal medium A (Gibco, Invitrogen Corp., Carlsbad, CA). Finally, we plated cells onto poly-l-lysine-coated 12-mm glass coverslips (Deutsche Spiegelglas; Carolina Biologic Supply, Burlington, NC), kept them in a humidified incubator at 37°C with 95% air and 5% CO2, and studied them within 3–8 h of dissociation.
We visualized plated neurons using an inverted Nikon Diaphot 300 microscope with Hoffman modulation optic system. We selected only large diameter neuronal somata (≥ 40 μm in diameter) because we have previously shown that only these develop KATP current alterations, as well as changes indicative of increased excitability after painful-like nerve injury by SNL [74]. Large neuronal somata, roughly correspond to large, myelinated Aβ fibers.
as §2
We recorded single channel currents at room temperature (20–25°C) using an Axon CNS Multiclamp 700B amplifier, digitized them using an analog-to-digital converter (Axon CNS DigiData 1440A; Axon Instruments, Foster, CA), and stored them into a PC. Sampling frequency of single-channel data was 5 KHz with a low-pass filter (1 KHz). We used pClamp version 10.2 software (Axon Instruments) for data acquisition and analysis. We applied a conventional 50% current amplitude threshold level criterion to determine open events. Channel open probability (Po) was determined from the ratios of the area under the peaks in the amplitude histograms fitted by a Gaussian distribution. […]

[3] = biological target: T3, SUR1-C717S/Kir6.2 channels (Rattus norvegicus, UniProt P70673+Q09429, C717S); experiment: Inside-out patch recording of mutated channels expressed in COS7 cells; details: n = 7
T3 construct: A full-length Kir cDNA and a full-length SUR cDNA were subcloned into the mammalian expression vector; expressed in transfected cells; host or cells: COS7 cells, pcDNA3.1(-) vectors, GFP cDNA co-transfected as a separate reporter
T3 sequence (Q09429 whole entry C717S): as the sequence (Q09429 whole entry) above, with C717S counted along it
T3 sequence (P70673 whole entry): as the sequence (P70673 whole entry) above
Protocol: as §1, §2, §3

| SMILES | effect on recombinant channel currents ([1]; 1 mM [ATP]i, COS7 cells, inside-out) | IC50 ([1]; n = 7, read-out: ATP-sensitivity IC50) [µM] | effect on channel activity in inside-out patches ([2]; ATP 1 mM, SS and SNL, -60 mV) | IC50 ([2]; SNL neurons, various intracellular ATP concentrations, n = 5, read-out: ATP sensitivity IC50) [µM] | IC50 ([2]; SS neurons, various intracellular ATP concentrations, n = 5, read-out: ATP sensitivity IC50) [µM] | IC50 ([2]; absence of SNAP, SS neurons, n = 7, read-out: IC50 value for [ATP]i) [µM] | IC50 ([2]; presence of SNAP, SS neurons, n = 7, read-out: IC50 value for [ATP]i) [µM] | effect on recombinant channel currents ([3]; 1 mM [ATP]i) | IC50 ([3]; read-out: ATP-sensitivity IC50) [µM] | effect on SNAP-activated currents ([1]; DTT 5 mM after SNAP 1 mM) | effect on SNAP-induced KATP channel activation ([2]; SS neurons, DTT 5 mM after SNAP 100 μM, 1 mM [ATP]i, n = 7) | direct effect on KATP channels in inside-out patches ([2]; agent alone, vs. baseline/control) | effect on SNAP-induced channel activation ([3]; DTT 5 mM) |
| --- | --- | --- | --- | --- | --- | --- | --- | --- | --- | --- | --- | --- | --- |
| Nc1ncnc2c1ncn2[C@@H]1O[C@H](COP(=O)(O)OP(=O)(O)OP(=O)(O)O)[C@@H](O)[C@H]1O [ATP] | strongly inhibited | 11.6 | reversibly blocked | 18.1 | 14.7 | 12.8 | 54.4 | strongly inhibited | 13.1 | – | – | – | – |
| O[C@@H](CS)[C@@H](O)CS (racemic) [DTT, di-thiothreitol] | – | – | – | – | – | – | – | – | – | almost completely suppressed | completely reversed | no direct effect | reversed |

— PMC2673211, “Nitric oxide activates ATP-sensitive potassium channels in mammalian sensory neurons: action by direct S-nitrosylation” (Molecular Pain, 2009)
